In US10538738B2, “Megakaryocytic particles and microparticles for cell therapy and fate modification of stem and progenitor cells” (priority 2014, dated 2020):
Residues, ends and D or L forms follow the SMILES beside them. *: point of attachment. Cbz = O=C(OCc1ccccc1)*; CH2F = FC*

How the values were obtained:
[1] = system: Mks; experiment: Shear-enhanced MkMP generation from Mks treated with caspase inhibitors; type: cell-based, human; conditions: d10 and d12 Mks, 10 μM inhibitor, shear flow 2.5 dyn/cm^2 for 0.5 hour
Protocol: Rectangular flow slides (μ-Slide 1^0.6 Luer, ibidi USA) were coated with 50 μg/mL vWF, and ca. 300,000 cultured Mks were seeded into each slide. Mks on slides were cultured overnight (21 hours) before being exposed to shear flow. Medium (IMDM supplemented with 10% BIT9500, 50 ng/mL TPO, 50 ng/mL rhSCF, 0.5 μg/mL hLDL and 6.25 mM nicotinamide) was perfused over Mks on slides by two syringe pumps (Dual NE-4000 pump; New Era Pump Systems) to achieve the desirable shear-stress level. For BrdU incorporation assays, the medium was supplemented with 10 μM BrdU (BD). During shear flow, some Mks were detached from the slide surface and released into the circulating medium. These are considered as non-adherent Mks. Adherent Mks were harvested for analysis using non-enzymatic cell dissociation buffer (Sigma-Aldrich). In some experiments, adherent Mks were fixed with 2% paraformaldehyde directly on slides and processed for immunofluorescence analysis. In some experiments, Mks were treated with caspase inhibitors, 10 μM z-VAD.fmk (Bachem) or 10 μM z-DEVD.fmk (Bachem) starting on d9. […]
For both static cultures and cultures exposed to shear flow, Mk cells were removed from the culture medium by centrifugation (150× g for 10 minutes). […] Concentrations of MkMPs (and of PMPs and Mks) were measured by flow cytometry using 1.34 μm microbeads (Sphero Tech) as standard. […]

[2] = system: Mks; experiment: Shear-flow PPT and PLP generation from Mks treated with caspase inhibitors; type: cell-based, human; conditions: 10 μM inhibitor, shear flow 2.5 dyn/cm^2 for 0.5 hour
Protocol: Rectangular flow slides (μ-Slide 1^0.6 Luer, ibidi USA) were coated with 50 μg/mL vWF, and ca. 300,000 cultured Mks were seeded into each slide. Mks on slides were cultured overnight (21 hours) before being exposed to shear flow. Medium (IMDM supplemented with 10% BIT9500, 50 ng/mL TPO, 50 ng/mL rhSCF, 0.5 μg/mL hLDL and 6.25 mM nicotinamide) was perfused over Mks on slides by two syringe pumps (Dual NE-4000 pump; New Era Pump Systems) to achieve the desirable shear-stress level. For BrdU incorporation assays, the medium was supplemented with 10 μM BrdU (BD). During shear flow, some Mks were detached from the slide surface and released into the circulating medium. These are considered as non-adherent Mks. Adherent Mks were harvested for analysis using non-enzymatic cell dissociation buffer (Sigma-Aldrich). In some experiments, adherent Mks were fixed with 2% paraformaldehyde directly on slides and processed for immunofluorescence analysis. In some experiments, Mks were treated with caspase inhibitors, 10 μM z-VAD.fmk (Bachem) or 10 μM z-DEVD.fmk (Bachem) starting on d9. Inhibitor-treated Mks were seeded into flow slides at d9 or d11, were exposed to shear flow (2.5 dyn/cm^2 for 0.5 hour) in medium supplemented with the same inhibitor, and were harvested for PPT, PLP and CD41^+ microparticle counting.
Large cells were excluded from PLP preparations by centrifugation at 150× g for 10 minutes. PLPs were then pelleted by centrifugation at 1000× g for 10 minutes from the PLP-enriched supernatant. After one wash, PLPs were resuspended in Tyrode's buffer and used in platelet-stimulation assays. The number of PLPs and PPTs per slide was measured using a Multisizer™ 3 Coulter Counter (Beckman Coulter).
It has been shown that activation of caspase-3 and 9 is required for PPT formation. Here we wanted to investigate if shear stress affects caspase-3 activation in Mks. We chose caspase-3 as a marker of late apoptosis to complement our Annexin V studies above, which pertain to early apoptotic events. First, we confirmed that caspase-3 in indeed activated during in vitro Mk maturation with our culture protocol. […] We also observed a correlation between the activation level of caspase-3 in Mks (represented as the ratio of MFI of active caspase-3 over isotype control) and PPT formation (FIG. 4C), which is consistent with previous studies discussed above. […] Exposure of Mks for 2 hours to 1 dyn/cm^2 enhanced caspase-3 activation both at d10 and d12 (FIG. 4D) by 1.7 to 5.6 fold depending on the donor and day. Since, as discussed, caspase-3 activation is necessary for PPT formation, one mechanism by which shear stress may promote PPT formation (see below) is by enhancing caspase-3 activation. To investigate this hypothesis, Mks were treated with 10 μM z-VAD.fmk (pan-caspase inhibitor) or z-DEVD.fmk (caspase-3 inhibitor) and were then exposed to shear flow. After flow application, PLPs (d=1-3 μm) and PPTs (d=3-10 μm) were harvested and counted. The effect of shear stress on particle generation was assessed using the ratio of PLP or PPT number from one slide of Mks under flow conditions over that under static conditions. […] However, at d12, both of z-VAD fmk and z-DEVD.fmk decreased both the PPT and PLP ratios (FIGS. 4E and 4F). […] At d12 when Mks produced more PPTs and stared to form a significant number of PLPs, the effect of shear on PPT and PLP generation was attenuated by caspase inhibitors.

| PLP ratio (PLP number under flow conditions over static conditions) ([2]; d10 Mks) | PPT ratio (PPT number under flow conditions over static conditions) ([2]; d10 Mks) | PLP ratio (PLP number under flow conditions over static conditions) ([2]; d12 Mks) | PPT ratio (PPT number under flow conditions over static conditions) ([2]; d12 Mks) | Compound | Ratio of number of MkMPs under shear flow over static conditions [1] |
| --- | --- | --- | --- | --- | --- |
| decreased only the PPT ratio | decreased | decreased | decreased | COC(=O)CC[C@H](NC(=O)[C@H](CC(=O)OC)NC(=O)OCc1ccccc1)C(=O)N[C@H](C(=O)N[C@@H](CC(=O)OC)C(=O)CF)C(C)C [z-DEVD.fmk] | attenuated the effect of shear stress |
| no statistically significant effect | no statistically significant effect | decreased | decreased | COC(=O)C[C@H](NC(=O)[C@H](C)NC(=O)[C@@H](NC(=O)OCc1ccccc1)C(C)C)C(=O)CF [z-VAD.fmk] (Cbz-Val-Ala-Asp(OMe)-CH2F) | only treatment with caspase-3 inhibitor (z-DEVD fmk) attenuated the effect of shear stress |
